The source of these data is EP4329743B1 (priority 2021, dated 2022).

Data set [1] relates to Neuraminidase (EC 3.2.1.18). Briefly: Neuraminidase activity assay (colorimetric kit, Sigma Aldrich MAK121). The format is biochemical. Particulars: maximum activity set 100%; mean of three independent experiments; Figure 4. On the procedure: Neuraminidase (EC 3.2.1.18) also known as sialidase is an enzyme that hydrolyzes terminal sialic acid residues on polysaccharide chains. It is predominantly expressed on the surface of viruses and bacteria. For activity measurement, the activity was measured using the neuraminidase activity kit from Sigma Aldrich (Cat.No.: MAK121). Accordingly, the neuraminidase activity is determined by an enzymatic essay in which the sialic acid released by neuraminidase results in the colorimetric product directly proportional to neuraminidase activity in the sample. The reaction master mixture contained assay buffer, (+/-) substrate, cofactors, neuraminidase, and dye-reagent. The activity is expressed as units/L and maximum activity was arbitrarily set 100%. The effect of ethyl pyruvate and ethyl lactate on enzyme activity was evaluated by comparing the change of the absorbance against the samples with substrate (maximum activity) and without the substrate (blank).

For data set [2], the system named is influenza virus H9N2. The data set is classed as cell-based. Particulars: MDCK II cells, H9N2, 1 h infection, 2 days culture; ethyl pyruvate 42 mM; Figure 5.
Data set [3] relates to inflammatory cytokines such as TNF-alpha, IL-1β, IL-6 and IL-8. Briefly: Release of inflammatory cytokines from LPS-stimulated human whole blood (cytometric bead array). The format is cell-based. Particulars: whole blood diluted 1:5, LPS 10ng/ml, 1 to 20 mM, 6 h; Figure 6. On the procedure: Human heparinized whole blood was diluted with RPMI 1640 medium (ThermoFisher Scientific) (1:5) and incubated with LPS (10ng/ml) and increasing concentration of ethyl pyruvate (A-D) or ethyl lactate (E-H) (1 to 20 mM) for 6 h at 37°C with 5% CO2. Following incubation, the plates were centrifuged at 2000g for 10 min and the proinflammatory cytokines were analysed by cytometric bead array using a FACSCalibur and the CellQuestTMSoftware (BD Biosciences).

Data set [4] relates to MDCK II cells.

As for `CCOC(=O)C(C)O` (centres unmarked) [ethyl lactate], the activity of neuraminidase result in data set [1] is recorded as “only minimum inhibitory effect”. The “cytopathic effect of the influenza virus (cellular structures and confluency)” value in data set [2] was “does not protect MDCK II cells from the cytopathic effect of the virus”. The “release of inflammatory cytokines (TNF-alpha, IL-1β, IL-6, IL-8)” value in data set [3] is “effectively inhibited”. For the same compound, the “toxic effect on MDCK II cells” value in data set [4] is reported as “no toxic effect”.

`CCOC(=O)C(C)=O` [ethyl pyruvate, Ethyl pyruvate]: the activity of neuraminidase entry in data set [1] is given as “inhibits activity of neuraminidase in a concentration-dependent manner”. Moreover, in data set [2], the “cytopathic effect of the influenza virus (cellular structures and confluency)” value was “the cellular structures and confluency is preserved”. Moreover, the “release of inflammatory cytokines (TNF-alpha, IL-1β, IL-6, IL-8)” value in data set [3] was “effectively inhibited”. Further, the “toxic effect on MDCK II cells” value in data set [4] is on record as “no toxic effect”.
